According to patent publication US5478933A, “Benzodiazepine derivatives and their use as antagonists of cholecystokinin and/or gastrin receptors” (Merck Sharpe & Dohme Ltd., priority 1994, dated 1995):

What was measured:
[1] = molecular target: T1, CCK receptor (pancreas) (Rattus norvegicus, UniProt P30551); experiment: CCK Receptor Binding (Pancreas), inhibition of 125I-CCK-8 binding; design: species or system rat (male Sprague-Dawley); conditions: rat pancreas membranes; 50 pM 125I-CCK-8; pH 6.5, 25° C., 2 hours
T1 construct: The whole pancreas was dissected free of fat tissue and was homogenized; from tissue; host or cells: whole pancreas of male Sprague-Dawley rats, membrane homogenate
T1 sequence (P30551 1-444): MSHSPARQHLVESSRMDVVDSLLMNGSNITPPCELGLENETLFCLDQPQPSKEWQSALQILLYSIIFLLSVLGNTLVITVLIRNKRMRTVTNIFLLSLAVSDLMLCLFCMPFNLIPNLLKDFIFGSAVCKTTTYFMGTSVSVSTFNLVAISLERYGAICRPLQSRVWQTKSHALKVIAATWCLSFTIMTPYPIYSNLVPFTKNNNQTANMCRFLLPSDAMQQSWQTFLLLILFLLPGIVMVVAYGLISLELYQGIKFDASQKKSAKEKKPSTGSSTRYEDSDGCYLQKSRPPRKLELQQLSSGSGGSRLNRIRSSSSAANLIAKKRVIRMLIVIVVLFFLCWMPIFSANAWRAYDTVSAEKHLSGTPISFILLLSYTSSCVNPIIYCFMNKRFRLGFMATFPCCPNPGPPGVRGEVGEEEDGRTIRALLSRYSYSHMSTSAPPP
Method: CCK-8 sulphated was radiolabelled with ^125 I-Bolton Hunter reagent (2000 Ci/mmole). Receptor binding was performed according to Chang and Lotti (Proc. Natl. Acad. Sci. 83, 4923-4926, 1986) with minor modifications.
Male Sprague-Dawley rats (150-200 g) were sacrificed by decapitation. The whole pancreas was dissected free of fat tissue and was homogenized in 25 volumes of ice-cold 10 mM N-2-hydroxyethyl-piperazine-N'-2-ethane sulphonic acid (HEPES) buffer with 0.1% soya bean trypsin inhibitor (pH 7.4 at 25° C.) with a Kinematica Polytron. The homogenates were centrifuged at 47,800 g for 10 min. Pellets were resuspended in 10 volumes of binding assay buffer (20mM (HEPES)), 1 mM ethylene glycol-bis-(β-aminoethylether-N,N'-tetraacetic acid) (EGTA), 5 mM MgCl2, 150 mM NaCl, bacitracin 0.25 mg/ml, soya bean trypsin inhibitor 0.1 mg/ml, and bovine serum albumin 2 mg/ml pH 6.5 at 25° C.) using a Teflon (trademark) homogenizer, 15 strokes at 500 rpm. The homogenate was further diluted in binding assay buffer to give a final concentration of 0.5 mg original wet weight/1 ml buffer. […] The radioactivity on the filters was counted with a LKB gamma counter. […]

[2] = molecular target: T2, CCK receptor (brain) (Cavia porcellus, UniProt H0VZC5); experiment: CCK Receptor Binding (Brain), inhibition of 125I-CCK-8 binding; design: species or system guinea pig (male Hartley); conditions: guinea pig cortex membranes; 50 pM 125I-CCK-8; pH 6.5, 25° C., 2 hours
T2 construct: the cortex was removed and homogenized in 25 mL ice-cold 0.32M sucrose; from tissue; host or cells: cortex of male Hartley guinea pigs, P2 membrane pellet
T2 sequence (H0VZC5 entry or part of it): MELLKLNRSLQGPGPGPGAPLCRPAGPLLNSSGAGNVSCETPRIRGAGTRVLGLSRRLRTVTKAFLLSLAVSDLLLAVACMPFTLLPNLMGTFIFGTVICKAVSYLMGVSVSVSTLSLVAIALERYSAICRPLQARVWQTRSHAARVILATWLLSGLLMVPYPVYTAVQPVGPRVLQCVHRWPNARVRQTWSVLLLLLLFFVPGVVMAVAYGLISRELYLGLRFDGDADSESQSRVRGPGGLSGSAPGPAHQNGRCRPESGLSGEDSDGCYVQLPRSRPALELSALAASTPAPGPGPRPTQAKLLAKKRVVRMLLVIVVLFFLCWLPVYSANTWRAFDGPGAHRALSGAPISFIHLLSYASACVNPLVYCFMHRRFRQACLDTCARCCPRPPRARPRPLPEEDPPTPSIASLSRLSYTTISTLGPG
Method: CCK-8 sulphated was radiolabelled and the binding was performed according to the description for the pancreas method with minor modifications.
Male Hartley guinea pigs (300-500 g) were sacrificed by decapitation and the cortex was removed and homogenized in 25 mL ice-cold 0.32M sucrose. The homogenates were centrifuged at 1000 g for 10 minutes and the resulting supernatant was recentrifuged at 20,000 g for 20 minutes. The P2 pellet was resuspended in binding assay buffer (20 mM HEPES, 5 mM MgCl2, 0.25 mg/ml bacitracin, 1 mM EGTA pH 6.5 at 25° C.), using a Teflon (trademark) homogenizer (5 strokes at 500 rpm) to give a final concentration of 10 mg original wet weight/1.2 ml buffer. For the binding assay, 50 μl of buffer (for total binding) or unlabelled CCK-8 sulphated to give a final concentration of 1 μM (for nonspecific binding) or the compounds of Formula I (for determination of inhibition of ^125 I-CCK-8 binding) and 50 μl of 500 pM ^125 I-CCK-8 (i.e. final concentration of 50 pM) were added to 400 μl of the membrane suspensions in microfuge tubes. All assays were run in duplicate. The reaction mixtures were incubated at 25° C. for 2 hours and then the reaction was terminated by rapid filtration (Brandell 24 well cell harvester) on Whatman GF/C filters with 3×5 ml washes of cold 100 mM NaCl. The radioactivity on the filters was counted with a LKB gamma counter. […]

| Compound | IC50 [1] | IC50 [2] |
| --- | --- | --- |
| CC(C)CN1C(=O)C(NC(=O)Nc2cccc(-c3nn[nH]n3)c2)N=C(c2cc[nH]c(=O)c2)c2ccccc21 (racemic) [Example 2, N-[3(R,S)-2,3-Dihydro-1-(2-methylpropyl)-2-oxo-5-(2-oxo-1,2-dihydropyridin-4-yl)-1H-1,4-benzodiazepin-3-yl]-N'-[3-(tetrazol-5-yl)phenyl]urea] | 3.38 µM | 23 nM |
| CC(C)CN1C(=O)C(NC(=O)Nc2cccc(-c3nn[nH]n3)c2)N=C(c2ccc(=O)[nH]c2)c2ccccc21 (racemic) [Example 1, N-[3(R,S)-2,3-Dihydro-1-(2-methylpropyl)-2-oxo-5-(6-oxo-1,6-dihydropyridin-3-yl)-1H-1,4-benzodiazepin-3-yl]-N'-[3-(tetrazol-5-yl)phenyl]urea] | 2.68 µM | 19.2 nM |
